In PubChem BioAssay (NCI):
“And” between values parts separate entries of the source, which are not always exact repeats. Equal values may be shown once.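 Step 1: Grow cells in 96-well plates. Step 2: Expose to compound for 48 hours at 5 concentrations. Step 3: Interpolate endpoints linearly; if unreached, use highest concentration. Abbreviation: GI50, concentration required for 50% inhibition of growth. TGI marks complete inhibition of growth.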 Where a SMILES comes first, the peptide text is derived from it. [ ]: non-standard residue; d: D form. The star is where a group is joined. ξ: configuration not given here. NMeN = CN[C@@H](CC(N)=O)C(=O)O; NMeV = CN[C@H](C(=O)O)C(C)C; ξNMeV = CNC(C(=O)O)C(C)C; Boc = CC(C)(C)OC(=O)*; ξNMeA = CNC(C)C(=O)O

Assays:
Assay in all cases: NCI-60 cell line screen, 48 h
A549 NSCLC = test system: A549 NSCLC
CAKI-1 renal = test system: CAKI-1 renal
K-562 leukemia = test system: K-562 leukemia
MALME-3M melanoma = test system: MALME-3M melanoma
SF-539 CNS = test system: SF-539 CNS
SK-MEL-5 melanoma = test system: SK-MEL-5 melanoma
SK-OV-3 ovarian = test system: SK-OV-3 ovarian
SNB-19 CNS = test system: SNB-19 CNS
SR leukemia = test system: SR leukemia
HS 578T breast = test system: HS 578T breast

| SMILES | TGI (A549 NSCLC) | TGI (CAKI-1 renal) [µM] | TGI (K-562 leukemia) | TGI (MALME-3M melanoma) [µM] | TGI (SF-539 CNS) [µM] | TGI (SK-MEL-5 melanoma) | TGI (SK-OV-3 ovarian) [µM] | TGI (SNB-19 CNS) [µM] | TGI (SR leukemia) [µM] | GI50 (A549 NSCLC) [µM] | GI50 (CAKI-1 renal) [µM] | GI50 (K-562 leukemia) [µM] | GI50 (MALME-3M melanoma) [µM] | GI50 (SK-OV-3 ovarian) [µM] | GI50 (SNB-19 CNS) [µM] | GI50 (SR leukemia) [µM] | GI50 (SF-539 CNS) [µM] | GI50 (SK-MEL-5 melanoma) [µM] | GI50 (HS 578T breast) [µM] | TGI (HS 578T breast) [µM] |
| --- | --- | --- | --- | --- | --- | --- | --- | --- | --- | --- | --- | --- | --- | --- | --- | --- | --- | --- | --- | --- |
| CC(=O)/C(=C\C1=CCCO1)C(=O)Nc1ccccc1C | > 100 µM | > 100 | > 100 µM | > 100 | > 100 | > 100 µM | > 100 | > 100 | > 100 | – | – | – | – | – | – | – | – | – | – | – |
| CC/C(=C(/CC)c1ccc(O)cc1)c1ccc([O-])cc1.CC/C(=C(/CC)c1ccc(O)cc1)c1ccc([O-])cc1.O=C([CH-]C(=O)c1ccccc1)c1ccccc1.O=C([CH-]C(=O)c1ccccc1)c1ccccc1.[Ti+4] | 32.3 µM | 61 | > 100 µM | 20.3 | – | – | 52.2 | 27.8 | > 100 | 7.99 | 16.3 | 3.51 | 7.53 | 19.8 | 14.7 | 9.89 | – | – | – | – |
| COC(=O)C(C)N(C)C(=O)[C@H](CC(N)=O)N(C)C(=O)[C@@H]1CCCN1C(=O)[C@H](C(C)C)N(C)C(=O)C(C(C)C)N(C)C(=O)[C@@H](NC(=O)OC(C)(C)C)C(C)C (stereo partly drawn) (Boc-V[ξNMeV][NMeV]P[NMeN][ξNMeA]-OMe) | 50 µM and > 100 µM | > 100 | 50 µM and > 100 µM | > 100 | > 100 | 50 µM and > 100 µM | > 100 | > 100 | > 100 | > 100 | > 100 | > 100 | – | > 100 | > 100 | – | > 100 | > 100 | – | – |
| O=C1NC2CCC(C2)C1c1ccccc1 (stereo not drawn) | > 100 µM | – | > 100 µM | > 100 | > 100 | > 100 µM | > 100 | > 100 | > 100 | – | – | – | – | – | – | – | – | – | – | – |
| COC(=O)C12CC(c3ccccc31)C1C(=O)OC(=O)C12 (stereo not drawn) | > 100 µM | – | > 100 µM | > 100 | > 100 | > 100 µM | – | > 100 | – | – | – | – | – | – | – | – | – | – | – | – |
| CC(C)CNc1nc(-c2ccccc2)nc2ccccc12 | 31.8 µM | 29.8 | 30.8 µM | 26.4 | – | 29 µM | 31.3 | 39.6 | 30.9 | 15.1 | 15.4 | 11.1 | 13.4 | 15.3 | 19.2 | 10.1 | – | 15.2 | 16.5 | 33.9 |
| CCN(CC)CCNC(=O)c1nn(C)c(=S)[nH]c1=S | > 100 µM | > 100 | > 100 µM | > 100 | > 100 | > 100 µM | > 100 | > 100 | > 100 | – | – | – | – | – | – | – | – | – | – | – |
| COc1ccc(-c2ccc(/C=N/n3c(COc4ccc(Cl)cc4Cl)nn(CN4CCN(C)CC4)c3=S)o2)c([N+](=O)[O-])c1 | > 100 µM | 37.3 | > 100 µM | – | – | – | 80.7 | > 100 | 96.1 | 20.8 | 16.8 | 22.2 | – | 30.8 | 35.2 | 31.1 | – | – | 37.8 | > 100 |
| Nc1nc(=S)[nH]c(C(=O)Nc2ccc(Cl)c(Cl)c2)c1-c1ccc(Cl)cc1 | > 100 µM | > 100 | > 100 µM | > 100 | > 100 | > 100 µM | > 100 | > 100 | > 100 | – | – | – | – | – | – | – | – | – | – | – |
